# In patent US20260256792A1, “TREATMENT OF CHRONIC SPONTANEOUS URTICARIA BY ADMINISTERING (R)-2-[3-[4-AMINO-3-(2-FLUORO-4-PHENOXY-PHENYL)PYRAZOLO[3,4-D]PYRIMIDIN-1-YL]PIPERIDINE-1-CARBONYL]-4-METHYL-4-[4-(OXETAN-3-YL)PIPERAZIN-1-YL]PENT-2-ENENITRILE” (priority 2023, published 2026):
# System: moderate-to-severe chronic spontaneous urticaria (CSU)
# Experiment: Phase 2 CSU study: Patient Global Impression of Severity (PGIS)
# Assay type: in vivo, human
# Details: for PGIS Change from baseline Mean (SD) / PGIS Change from baseline Median / PGIS Median / PGIS Percent change from baseline Mean (SD) / PGIS Percent change from baseline Median / PGIS category Mild, patients / PGIS category Moderate, patients / PGIS category None, patients / PGIS category Severe, patients: omalizumab-naïve population; for PGIS % Change difference for rilzabrutinib vs. placebo LS Mean (95% CI) / PGIS % Change from baseline LS Mean (SE) / PGIS Change difference for rilzabrutinib vs. placebo LS Mean (95% CI) / PGIS Change from baseline LS Mean (SE): omalizumab-naïve, ANCOVA
# Source text: The study comprises a 12 week, randomized, double-blind, placebo-controlled, multi-center, dose-ranging efficacy and safety phase, followed by a 40 week open label extension (OLE) phase (see FIG. 1).
# The study consists of three phases and an optional OLE phase.
# The PGIS is a 1-item measure that asks participants to provide a self-assessment of their overall CSU severity for the past week on a 4 point scale. Response choices are: “None”, “Mild”, “Moderate” and “Severe”. The PGIC is a 1-item measure that asks the participant to provide a self-assessment of overall change in their CSU since the participant started taking the study medication on a 7-point scale. The response options range from “Very Much Better” to “Very Much Worse.” Patients were to complete questionnaires for the 2 items during their site visit.
compound,measurement,setting,value
"CC(C)(C=C(C#N)C(=O)N1CCC[C@@H](n2nc(-c3ccc(Oc4ccccc4)cc3F)c3c(N)ncnc32)C1)N1CCN(C2COC2)CC1 [rilzabrutinib, (R)-2-[3-[4-amino-3-(2-fluoro-4-phenoxy-phenyl)pyrazolo[3,4-d]pyrimidin-1-yl]piperidine-1-carbonyl]-4-methyl-4-[4-(oxetan-3-yl)piperazin-1-yl]pent-2-enenitrile]",quality of life as measured by PGIS,400 mg TID,improvement
same,PGIS Change from baseline Mean (SD),"Week 2, 400 mg BID",−0.65
same,PGIS Change from baseline Median,"Week 2, 400 mg BID",0.00
same,PGIS Median,"Week 2, 400 mg BID",2.00
same,PGIS Percent change from baseline Mean (SD),"Week 2, 400 mg BID",−23.12%
same,PGIS Percent change from baseline Median,"Week 2, 400 mg BID",0.00%
same,"PGIS category Mild, patients","Week 2, 400 mg BID",8 (25.8)
same,"PGIS category Moderate, patients","Week 2, 400 mg BID",14 (45.2)
same,"PGIS category None, patients","Week 2, 400 mg BID",5 (16.1)
same,"PGIS category Severe, patients","Week 2, 400 mg BID",4 (12.9)
same,PGIS % Change difference for rilzabrutinib vs. placebo LS Mean (95% CI),"Week 2, 400 mg BID","−7.56 (−24.17, 9.05) %"
same,PGIS % Change from baseline LS Mean (SE),"Week 2, 400 mg BID",−26.23 (6.28) %
same,PGIS Change difference for rilzabrutinib vs. placebo LS Mean (95% CI),"Week 2, 400 mg BID","−0.26 (−0.63, 0.11)"
same,PGIS Change from baseline LS Mean (SE),"Week 2, 400 mg BID",−0.76 (0.14)
same,PGIS Change from baseline Mean (SD),"Week 2, 400 mg QPM",−0.48
same,PGIS Change from baseline Median,"Week 2, 400 mg QPM",0.00
same,PGIS Median,"Week 2, 400 mg QPM",2.00
same,PGIS Percent change from baseline Mean (SD),"Week 2, 400 mg QPM",−17.68%
same,PGIS Percent change from baseline Median,"Week 2, 400 mg QPM",0.00%
same,"PGIS category Mild, patients","Week 2, 400 mg QPM",8 (24.2)
same,"PGIS category Moderate, patients","Week 2, 400 mg QPM",17 (51.5)
same,"PGIS category None, patients","Week 2, 400 mg QPM",0
same,"PGIS category Severe, patients","Week 2, 400 mg QPM",8 (24.2)
same,PGIS % Change difference for rilzabrutinib vs. placebo LS Mean (95% CI),"Week 2, 400 mg QPM","0.86 (−15.86, 17.59) %"
same,PGIS % Change from baseline LS Mean (SE),"Week 2, 400 mg QPM",−17.80 (6.05) %
same,PGIS Change difference for rilzabrutinib vs. placebo LS Mean (95% CI),"Week 2, 400 mg QPM","0.03 (−0.34, 0.41)"
same,PGIS Change from baseline LS Mean (SE),"Week 2, 400 mg QPM",−0.47 (0.14)
same,PGIS Change from baseline Mean (SD),"Week 2, 400 mg TID",−0.94
same,PGIS Change from baseline Median,"Week 2, 400 mg TID",1.00
same,PGIS Median,"Week 2, 400 mg TID",1.00
same,PGIS Percent change from baseline Mean (SD),"Week 2, 400 mg TID",−41.92%
same,PGIS Percent change from baseline Median,"Week 2, 400 mg TID",−50.00%
same,"PGIS category Mild, patients","Week 2, 400 mg TID",17 (50.0)
same,"PGIS category Moderate, patients","Week 2, 400 mg TID",9 (26.5)
same,"PGIS category None, patients","Week 2, 400 mg TID",4 (11.8)
same,"PGIS category Severe, patients","Week 2, 400 mg TID",4 (11.8)
same,PGIS % Change difference for rilzabrutinib vs. placebo LS Mean (95% CI),"Week 2, 400 mg TID","−22.00 (−38.77, −5.22) %"
same,PGIS % Change from baseline LS Mean (SE),"Week 2, 400 mg TID",−40.66 (6.06) %
same,PGIS Change difference for rilzabrutinib vs. placebo LS Mean (95% CI),"Week 2, 400 mg TID","−0.46 (−0.83, −0.09)"
same,PGIS Change from baseline LS Mean (SE),"Week 2, 400 mg TID",−0.96 (0.13)
same,PGIS Change from baseline Mean (SD),"Week 4, 400 mg BID",−0.70
same,PGIS Change from baseline Median,"Week 4, 400 mg BID",0.00
same,PGIS Median,"Week 4, 400 mg BID",2.00
same,PGIS Percent change from baseline Mean (SD),"Week 4, 400 mg BID",−27.78%
same,PGIS Percent change from baseline Median,"Week 4, 400 mg BID",0.00%
same,"PGIS category Mild, patients","Week 4, 400 mg BID",10 (30.3)
same,"PGIS category Moderate, patients","Week 4, 400 mg BID",15 (45.5)
same,"PGIS category None, patients","Week 4, 400 mg BID",5 (15.2)
same,"PGIS category Severe, patients","Week 4, 400 mg BID",3 (9.1)
same,PGIS % Change difference for rilzabrutinib vs. placebo LS Mean (95% CI),"Week 4, 400 mg BID","−1.31 (−17.26, 14.65) %"
same,PGIS % Change from baseline LS Mean (SE),"Week 4, 400 mg BID",−29.83 (5.99) %
same,PGIS Change difference for rilzabrutinib vs. placebo LS Mean (95% CI),"Week 4, 400 mg BID","−0.12 (−0.48, 0.25)"
same,PGIS Change from baseline LS Mean (SE),"Week 4, 400 mg BID",−0.81 (0.13)
same,PGIS Change from baseline Mean (SD),"Week 4, 400 mg QPM",−0.65
same,PGIS Change from baseline Median,"Week 4, 400 mg QPM",−0.50
same,PGIS Median,"Week 4, 400 mg QPM",2.00
same,PGIS Percent change from baseline Mean (SD),"Week 4, 400 mg QPM",−25.49%
same,PGIS Percent change from baseline Median,"Week 4, 400 mg QPM",−16.67%
same,"PGIS category Mild, patients","Week 4, 400 mg QPM",10 (29.4)
same,"PGIS category Moderate, patients","Week 4, 400 mg QPM",15 (44.1)
same,"PGIS category None, patients","Week 4, 400 mg QPM",1 (2.9)
same,"PGIS category Severe, patients","Week 4, 400 mg QPM",8 (23.5)
same,PGIS % Change difference for rilzabrutinib vs. placebo LS Mean (95% CI),"Week 4, 400 mg QPM","3.06 (−12.83, 18.95) %"
same,PGIS % Change from baseline LS Mean (SE),"Week 4, 400 mg QPM",−25.46 (5.77) %
same,PGIS Change difference for rilzabrutinib vs. placebo LS Mean (95% CI),"Week 4, 400 mg QPM","0.09 (−0.27, 0.44)"
same,PGIS Change from baseline LS Mean (SE),"Week 4, 400 mg QPM",−0.61 (0.13)
same,PGIS Change from baseline Mean (SD),"Week 4, 400 mg TID",−1.07
same,PGIS Change from baseline Median,"Week 4, 400 mg TID",1.00
same,PGIS Median,"Week 4, 400 mg TID",1.00
same,PGIS Percent change from baseline Mean (SD),"Week 4, 400 mg TID",−43.10%
same,PGIS Percent change from baseline Median,"Week 4, 400 mg TID",−50.00%
same,"PGIS category Mild, patients","Week 4, 400 mg TID",15 (51.7)
same,"PGIS category Moderate, patients","Week 4, 400 mg TID",9 (31.0)
same,"PGIS category None, patients","Week 4, 400 mg TID",3 (10.3)
same,"PGIS category Severe, patients","Week 4, 400 mg TID",2 (6.9)
same,PGIS % Change from baseline LS Mean (SE),"Week 4, 400 mg TID",−41.04 (6.24) %
same,PGIS Change difference for rilzabrutinib vs. placebo LS Mean (95% CI),"Week 4, 400 mg TID","−0.27 (−0.62, 0.09)"
same,PGIS Change from baseline LS Mean (SE),"Week 4, 400 mg TID",−0.96 (0.13)
